Counter-ions that a name gives are not always drawn.
Biological target: T1, human adrenaline α1A receptor (Homo sapiens, UniProt P35348)
T1 construct: expressed in transfected cells
T1 sequence (P35348 1-466): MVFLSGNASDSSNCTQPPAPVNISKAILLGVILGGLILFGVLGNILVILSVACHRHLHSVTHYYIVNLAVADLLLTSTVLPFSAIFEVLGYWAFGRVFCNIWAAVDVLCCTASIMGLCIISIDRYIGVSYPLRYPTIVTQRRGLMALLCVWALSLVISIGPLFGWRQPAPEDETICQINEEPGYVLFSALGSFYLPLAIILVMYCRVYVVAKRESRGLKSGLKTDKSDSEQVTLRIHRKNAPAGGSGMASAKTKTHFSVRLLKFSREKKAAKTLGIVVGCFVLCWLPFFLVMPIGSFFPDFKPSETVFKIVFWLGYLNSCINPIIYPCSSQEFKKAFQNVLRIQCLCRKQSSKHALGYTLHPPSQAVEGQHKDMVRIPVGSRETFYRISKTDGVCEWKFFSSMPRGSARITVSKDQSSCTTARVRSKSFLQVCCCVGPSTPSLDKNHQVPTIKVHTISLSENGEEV
Assay: α1A receptor binding inhibitory activity, [3H]-Prazosin binding to CHO-K1 membrane fraction
Settings: inhibition of [3H]-Prazosin (2.5 nM) binding to membrane fraction of CHO-K1 cells expressing human α1A receptor
Protocol: b) Measurement of α1 A Receptor Binding Inhibitory Activity
The genetic engineering procedures as described below were based on the methods described in the textbook (Maniatis, et al., Molecular Cloning, Cold Spring Harbor Laboratory, 1989) or the methods described in the protocols attached to the reagents.
(i) Preparation of Expression Plasmid of Human Adrenaline α1 A Receptor
An adrenaline α1 A receptor gene was cloned from human liver cDNA by means of a PCR method. PCR reaction was performed in a Gene Amp PCR System 9700 (Applied Biosystems) with 200 ng of a human liver cDNA library (Takara Shuzo Co., Ltd.) as a template, by adding 50 pmol of each of the primer sets shown below which were prepared with referring to the base sequence of the adrenaline α1 A receptor gene reported by Hirasawa A. et al. (Biochem. Biophys. Res. Commun., 195, 902-909 (1993)): 5′-[…]-3′ [SEQ ID NO: 1], and 5′-[…]-3′ [SEQ ID NO: 2], and using a TaKaRa Pyrobest DNA Polymerase (Takara Shuzo Co., Ltd.) (reaction condition: 45 cycles of 94° C. for 15 seconds and 68° C. for 3 minutes and 30 seconds).
Thus obtained PCR fragments were digested with a restriction enzyme Eco RI (Takara Shuzo Co., Ltd.) and Sal I (Takara Shuzo Co., Ltd.), and then subjected to electrophoresis on agarose gel to recover DNA fragments. […]

Row | SMILES | IC50
1 | NS(=O)(=O)c1cc(C(=O)CCCCNCCc2ccccc2OC(F)(F)F)cc2c1OCC2 [Example 6, 5-[5-({2-[2-(Trifluoromethoxy)phenyl]ethyl}amino)-pentanoyl]-2,3-dihydro-1-benzofuran-7-sulfonamide tosylate] | 19 nM
2 | COc1ccccc1N1CCN(CCCNc2cc(=O)n(C)c(=O)n2C)CC1 [Urapidil, urapidil, reference compound] | 470 nM

Test system: not given
Assay: not given
Settings: not given

Row | SMILES | melting point
3 | COc1ccc(C(=O)CCCCNCCc2ccccc2OC(F)(F)F)cc1S(N)(=O)=O.Cl | 169 to 171 °C
4 | COc1ccc(C(=O)CCCCNCCc2ccccc2OC(F)(F)F)cc1S(=O)(=O)NC(C)C.Cl | 156 to 158 °C
5 | CC(=O)Nc1cc(C(=O)CCCCNCCc2ccccc2OC(F)(F)F)cc2c1OCC2.Cl | 120 to 122 °C
6 | NS(=O)(=O)c1cc(C(O)CCCCNCCc2ccccc2OC(F)(F)F)cc2c1OCC2.O=C(O)/C=C\C(=O)O (stereo not shown) | 61 to 63 °C
7 | CNS(=O)(=O)c1cc(C(=O)CCCCNCCc2ccccc2OC(F)(F)F)cc2c1CCC2.Cl | 143 to 145 °C

Now from value to compound:

Row | melting point | SMILES
8 | 139 to 141 °C | Cl.NS(=O)(=O)c1cc(C(=O)CCCCNCCc2ccccc2OC(F)(F)F)cc2c1CCC2
9 | 85 to 87 °C | Cl.NS(=O)(=O)c1cc(C(=O)CCCCCNCCc2ccccc2OC(F)(F)F)cc2c1OCC2
10 | 92 to 94 °C | COc1ccccc1CCNCCCCCC(=O)c1cc2c(c(S(N)(=O)=O)c1)OCC2.Cl
11 | 107 to 109 °C | Cl.NS(=O)(=O)c1cc(C(=O)CCCCCNCCc2ccccc2Cl)cc2c1OCC2
12 | 135 to 137 °C | CNS(=O)(=O)c1cc(C(=O)CCCCNCCc2ccccc2OC(F)(F)F)cc2c1OCC2.Cl
13 | 173 to 175 °C | CC(C)NS(=O)(=O)c1cc(C(=O)CCCCNCCc2ccccc2OC(F)(F)F)cc2c1OCC2.Cl
14 | 111 to 113 °C | Cl.NS(=O)(=O)c1cc(C(=O)CCCCNCCc2ccccc2OC(F)(F)F)cc2c1OCCO2
15 | 106 to 108 °C | COc1ccccc1CCNCCCCC(=O)c1cc2c(c(S(N)(=O)=O)c1)CCC2.Cl
16 | 112 to 114 °C | CS(=O)(=O)Nc1cc(C(=O)CCCCNCCc2ccccc2OC(F)(F)F)cc2c1OCC2.Cl
17 | 167 to 169 °C | Cl.NS(=O)(=O)c1cc(C(=O)CCCCNCCc2ccccc2Cl)cc2c1CCC2

Biological target: T2, acetylcholinesterase from human erythrocyte origin (Homo sapiens, UniProt P22303)
T2 construct: Acetylcholinesterase from human erythrocyte origin (Sigma Chemical Co.); purchased Sigma Chemical Co; host or cells: human erythrocytes (tissue-derived enzyme)
Assay: Acetylcholinesterase-inhibitory action, acetylthiocholine method (Ellman method)
Type: biochemical
Settings: repeated at least 3 times, read-out: AChE: IC50
Protocol: a) Measurement of Acetylcholinesterase-Inhibitory Action
Acetylcholinesterase-inhibitory action of the Example Compounds was measured using acetylcholinesterase from human erythrocyte origin according to the acetylthiocholine method (Ellman method).
Acetylcholinesterase from human erythrocyte origin (Sigma Chemical Co.) was dissolved in distilled water at a concentration of 0.2 IU/mL to give an enzyme authentic sample. To a 96-well microplate 20 μL of drug solution, 30 μL of 80 mM Tris-HCl (pH 7.4), 50 μL of enzyme authentic sample and 50 μL of 5 mM 5,5-dithio-bis(2-nitrobenzoic acid) (Sigma Chemical Co.) were added, and the plate was shaken for 10 seconds. Then, 50 μL of acetylthiocholine iodide (Sigma Chemical Co.) was added, and the plate was again shaken. Immediately after shaking, absorbance at 414 nm was measured at intervals of 30 seconds for 10 minutes.
The experiment was repeated at least 3 times for each compound to obtain 50% inhibitory concentration (IC50). Moreover, in the same manner as mentioned above, acetylcholinesterase-inhibiting activity of distigmine was measured.

T2 sequence (P22303 32-617 isoform P22303-2 limits assumed): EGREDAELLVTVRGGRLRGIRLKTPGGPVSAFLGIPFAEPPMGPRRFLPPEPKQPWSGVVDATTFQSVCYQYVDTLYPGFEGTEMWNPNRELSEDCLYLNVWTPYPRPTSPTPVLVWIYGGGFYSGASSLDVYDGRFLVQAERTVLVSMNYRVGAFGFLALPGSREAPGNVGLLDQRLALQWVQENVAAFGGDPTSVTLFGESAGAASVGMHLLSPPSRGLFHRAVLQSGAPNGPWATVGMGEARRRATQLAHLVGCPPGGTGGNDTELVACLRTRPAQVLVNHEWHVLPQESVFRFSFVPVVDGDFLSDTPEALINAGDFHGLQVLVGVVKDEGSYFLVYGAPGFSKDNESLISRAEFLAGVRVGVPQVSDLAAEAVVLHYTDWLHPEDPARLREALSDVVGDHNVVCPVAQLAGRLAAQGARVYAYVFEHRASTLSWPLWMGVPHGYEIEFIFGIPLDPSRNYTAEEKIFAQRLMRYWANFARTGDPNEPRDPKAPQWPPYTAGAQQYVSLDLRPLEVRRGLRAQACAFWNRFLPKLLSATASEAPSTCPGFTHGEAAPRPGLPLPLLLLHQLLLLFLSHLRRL

Row | SMILES | IC50
18 | CN(CCCCCCN(C)C(=O)Oc1ccc[n+](C)c1)C(=O)Oc1ccc[n+](C)c1 [Distigmine, distigmine, reference compound] | 270 nM
19 | NS(=O)(=O)c1cc(C(=O)CCCCNCCc2ccccc2OC(F)(F)F)cc2c1OCC2 [Example 6, 5-[5-({2-[2-(Trifluoromethoxy)phenyl]ethyl}amino)-pentanoyl]-2,3-dihydro-1-benzofuran-7-sulfonamide tosylate] | 80 nM
